Laboratory results taken from patent US11649229B2, “Amide compounds for treatment of immune and inflammatory disorders” (Achillion Pharmaceuticals, Inc., priority 2015, dated 2023).

Molecular target: Human Factor D (Homo sapiens (Human), UniProt P00746)
Test: Human Factor D assay
Assay type: biochemical
Conditions: Human Factor D 80 nM, substrate Z-L-Lys-SBzl, assay of Example 12
Experimental: Human Factor D (purified from human serum, Complement Technology, Inc.) at 80 nM final concentration is incubated with test compound at various concentrations for 5 minutes at room temperature in 50 mM Tris, 1M NaCl, pH 7.5. A synthetic substrate Z-L-Lys-SBzl and DTNB (Ellman's reagent) are added to final concentrations of 100 μM each. Absorbance at 405 nm (A405) is recorded at 30 second intervals for 30 minutes using a microplate spectrophotometer. IC50 values are calculated by nonlinear regression of complement Factor D reaction rates as a function of test compound concentration.
The assay of Example 12 was used to determine the IC50's of the compounds. Other standard Factor D inhibition assays are also available.

Sequence of Human Factor D (P00746 26-253): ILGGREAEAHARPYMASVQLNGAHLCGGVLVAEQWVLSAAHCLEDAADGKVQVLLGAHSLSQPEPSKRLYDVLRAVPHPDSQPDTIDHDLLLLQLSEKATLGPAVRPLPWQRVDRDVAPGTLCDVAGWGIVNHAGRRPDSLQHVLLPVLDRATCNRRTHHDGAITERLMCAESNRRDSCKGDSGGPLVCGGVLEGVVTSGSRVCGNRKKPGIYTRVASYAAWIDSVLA

Structure (SMILES): Cc1cccc(NC(=O)[C@@H]2CCC(F)CCN2C(=O)Cn2cc(C(N)=O)c3cc(C(=O)NS(=O)(=O)C4CC4)ccc32)n1 (stereo partly drawn) [compound 8, N5-(cyclopropylsulfonyl)-1-(2-((2S)-5-fluoro-2-((6-methylpyridin-2-yl)carbamoyl)azepan-1-yl)-2-oxoethyl)-1H-indole-3,5-dicarboxamide]
- IC50: > 10 µM
